Experimental data published in ChEMBL document CHEMBL4813981, “Synthesis and in vitro antibacterial activity of new aminothiazole-oximepiperidone cephalosporins” (2021).
Converted amounts (≈) assume the structure as drawn.

Experiments:
Escherichia coli [1] = experiment: Bactericidal activity against ESBLs positive Carbapenem-sensitive Escherichia coli 17-10 assessed as reduction in bacterial growth; assay type: functional
Enterobacter cloacae [2] = experiment: Bactericidal activity against Enterobacter cloacae 17-8 assessed as reduction in bacterial growth; assay type: functional
Acinetobacter baumannii [3] = experiment: Bactericidal activity against Carbapenem- resistant Acinetobacter baumannii 17-3 assessed as reduction in bacterial growth; assay type: functional
Klebsiella aerogenes [4] = experiment: Antibacterial activity against Enterobacter aerogenes 17-4 assessed as reduction in bacterial growth
Klebsiella pneumoniae [5] = experiment: Antibacterial activity against ESBLs negative Carbapenem-sensitive Klebsiella pneumoniae 17-17 assessed as reduction in bacterial growth
Klebsiella aerogenes [6] = experiment: Antibacterial activity against Enterobacter aerogenes 17-3 assessed as reduction in bacterial growth
Pseudomonas aeruginosa [7] = experiment: Ratio of MBC to MIC for carbapenem-sensitive Pseudomonas aeruginosa 17-7 assessed as reduction in bacterial growth; assay type: functional
Pseudomonas aeruginosa [8] = experiment: Ratio of MBC to MIC for carbapenem-sensitive Pseudomonas aeruginosa 17-9 assessed as reduction in bacterial growth; assay type: functional
Klebsiella pneumoniae [9] = experiment: Bactericidal activity against ESBLs negative Carbapenem-sensitive Klebsiella pneumoniae 17-17 assessed as reduction in bacterial growth; assay type: functional
Enterobacter cloacae [10] = experiment: Ratio of MBC to MIC for Enterobacter cloacae 17-3 assessed as reduction in bacterial growth in the presence of Avibactam; assay type: functional
Enterobacter cloacae [11] = experiment: Ratio of MBC to MIC for Enterobacter cloacae 17-3 assessed as reduction in bacterial growth; assay type: functional
Klebsiella pneumoniae [12] = experiment: Ratio of MBC to MIC for ESBLs negative Carbapenem-sensitive Klebsiella pneumoniae 17-16 assessed as reduction in bacterial growth in the presence of Avibactam; assay type: functional
Pseudomonas aeruginosa [13] = experiment: Ratio of MBC to MIC for carbapenem-sensitive Pseudomonas aeruginosa 17-26 assessed as reduction in bacterial growth in the presence of Avibactam; assay type: functional
Acinetobacter baumannii [14] = experiment: Ratio of MBC to MIC for Carbapenem- resistant Acinetobacter baumannii 17-11 assessed as reduction in bacterial growth in the presence of Avibactam; assay type: functional
Escherichia coli [15] = experiment: Ratio of MBC to MIC for ESBLs positive carbapenem-negative Escherichia coli 17-10 assessed as reduction in bacterial growth in the presence of Avibactam; assay type: functional
Escherichia coli [16] = experiment: Antibacterial activity against ESBLs negative Carbapenem-sensitive Escherichia coli 17-9 assessed as reduction in bacterial growth in the presence of Avibactam; assay type: functional
Klebsiella aerogenes [17] = experiment: Ratio of MBC to MIC for Enterobacter aerogenes 17-3 assessed as reduction in bacterial growth in the presence of Avibactam; assay type: functional
Escherichia coli [18] = experiment: Ratio of MBC to MIC for ESBLs negative Carbapenem-sensitive Escherichia coli 17-20 assessed as reduction in bacterial growth; assay type: functional
Enterobacter cloacae [19] = experiment: Antibacterial activity against Enterobacter cloacae 17-1 assessed as reduction in bacterial growth in the presence of Avibactam; assay type: functional
Klebsiella aerogenes [20] = experiment: Antibacterial activity against Enterobacter aerogenes 15-6 assessed as reduction in bacterial growth in the presence of Avibactam; assay type: functional
Pseudomonas aeruginosa [21] = experiment: Ratio of MBC to MIC for carbapenem-sensitive Pseudomonas aeruginosa 17-29 assessed as reduction in bacterial growth; assay type: functional
Klebsiella pneumoniae [22] = experiment: Ratio of MBC to MIC for ESBLs positive Carbapenem-sensitive Klebsiella pneumoniae 17-12 assessed as reduction in bacterial growth in the presence of Avibactam; assay type: functional
Klebsiella aerogenes [23] = experiment: Ratio of MBC to MIC for Enterobacter aerogenes 17-4 assessed as reduction in bacterial growth in the presence of Avibactam; assay type: functional
Escherichia coli [24] = experiment: Ratio of MBC to MIC for ESBLs negative carbapenem-negative Escherichia coli 17-20 assessed as reduction in bacterial growth in the presence of Avibactam; assay type: functional
Acinetobacter baumannii [25] = experiment: Ratio of MBC to MIC for Acinetobacter baumannii NCTC 13304 assessed as reduction in bacterial growth in the presence of Avibactam; assay type: functional
Escherichia coli [26] = experiment: Antibacterial activity against ESBLs positive Carbapenem-sensitive Escherichia coli 17-5 assessed as reduction in bacterial growth in the presence of Avibactam; assay type: functional
Klebsiella pneumoniae [27] = experiment: Antibacterial activity against ESBLs negative Carbapenem-sensitive Klebsiella pneumoniae 15-2 assessed as reduction in bacterial growth in the presence of Avibactam; assay type: functional
Enterobacter cloacae [28] = experiment: Ratio of MBC to MIC for Enterobacter cloacae 17-8 assessed as reduction in bacterial growth; assay type: functional
Enterobacter cloacae [29] = experiment: Antibacterial activity against Enterobacter cloacae 17-3 assessed as reduction in bacterial growth in the presence of Avibactam; assay type: functional
Pseudomonas aeruginosa [30] = experiment: Antibacterial activity against Carbapenem- sensitive Pseudomonas aeruginosa 17-30 assessed as reduction in bacterial growth in the presence of Avibactam; assay type: functional
Klebsiella pneumoniae [31] = experiment: Antibacterial activity against ESBLs negative Carbapenem-sensitive Klebsiella pneumoniae 17-16 assessed as reduction in bacterial growth in the presence of Avibactam; assay type: functional
Escherichia coli [32] = experiment: Antibacterial activity against ESBLs negative Carbapenem-sensitive Escherichia coli 17-4 assessed as reduction in bacterial growth in the presence of Avibactam; assay type: functional
Acinetobacter baumannii [33] = experiment: Antibacterial activity against Carbapenem- resistant Acinetobacter baumannii 17-3 assessed as reduction in bacterial growth
Pseudomonas aeruginosa [34] = experiment: Ratio of MBC to MIC for carbapenem-sensitive Pseudomonas aeruginosa 17-29 assessed as reduction in bacterial growth in the presence of Avibactam; assay type: functional
Pseudomonas aeruginosa [35] = experiment: Ratio of MBC to MIC for carbapenem-sensitive Pseudomonas aeruginosa 17-26 assessed as reduction in bacterial growth; assay type: functional
Enterobacter cloacae [36] = experiment: Ratio of MBC to MIC for Enterobacter cloacae 17-10 assessed as reduction in bacterial growth; assay type: functional
Escherichia coli [37] = experiment: Ratio of MBC to MIC for ESBLs positive Carbapenem-sensitive Escherichia coli 17-18 assessed as reduction in bacterial growth; assay type: functional
Escherichia coli [38] = experiment: Ratio of MBC to MIC for ESBLs negative carbapenem-negative Escherichia coli 17-9 assessed as reduction in bacterial growth in the presence of Avibactam; assay type: functional
Enterobacter cloacae [39] = experiment: Ratio of MBC to MIC for Enterobacter cloacae 17-2 assessed as reduction in bacterial growth in the presence of Avibactam; assay type: functional
Escherichia coli [40] = experiment: Ratio of MBC to MIC for Escherichia coli ATCC 25922 assessed as reduction in bacterial growth; assay type: functional
Klebsiella pneumoniae [41] = experiment: Antibacterial activity against ESBLs positive Carbapenem-sensitive Klebsiella pneumoniae 17-10 assessed as reduction in bacterial growth in the presence of Avibactam; assay type: functional
Escherichia coli [42] = experiment: Ratio of MBC to MIC for ESBLs positive carbapenem-negative Escherichia coli 17-18 assessed as reduction in bacterial growth in the presence of Avibactam; assay type: functional
Escherichia coli [43] = experiment: Antibacterial activity against ESBLs positive Carbapenem-sensitive Escherichia coli 17-8 assessed as reduction in bacterial growth in the presence of Avibactam; assay type: functional

`CC(C)(O/N=C(\C(=O)N[C@@H]1C(=O)N2C(C(=O)[O-])=C(C[n+]3ccccc3)CS[C@H]12)c1csc(N)n1)C(=O)O` [CEFTAZIDIME] showed an MBC (Escherichia coli [1]) of 16 µg/mL (≈ 29.3 µM), an MBC (Enterobacter cloacae [2]) of 1 µg/mL (≈ 1.83 µM) and an MBC (Acinetobacter baumannii [3]) of 64 µg/mL (≈ 117 µM). The MIC (Klebsiella aerogenes [4]) was 8 µg/mL (≈ 14.6 µM) and the MIC (Klebsiella pneumoniae [5]) was 0.125 µg/mL (≈ 0.229 µM).
For `Nc1nc(/C(=N/OCc2cc(=O)c(O)cn2O)C(=O)N[C@@H]2C(=O)N3C(C(=O)O)=CCS[C@H]23)cs1`, the MIC (Klebsiella aerogenes [6]) was 2 µg/mL (≈ 3.93 µM), the Ratio (Pseudomonas aeruginosa [7]) was 4 and the Ratio (Pseudomonas aeruginosa [8]) was 4. For the same compound, the MBC (Klebsiella pneumoniae [9]) was 0.25 µg/mL (≈ 0.492 µM), the Ratio (Enterobacter cloacae [10]) was 4 and the Ratio (Enterobacter cloacae [11]) was 1. It also gave a Ratio (Klebsiella pneumoniae [12]) of 1, a Ratio (Pseudomonas aeruginosa [13]) of 4 and a Ratio (Acinetobacter baumannii [14]) of over 8. It also gave a Ratio (Escherichia coli [15]) of 8, an MIC (Escherichia coli [16]) of 0.5 µg/mL and a Ratio (Klebsiella aerogenes [17]) of 1. For the same compound, the Ratio (Escherichia coli [18]) was over 8, the MIC (Enterobacter cloacae [19]) was 1 µg/mL and the MIC (Klebsiella aerogenes [20]) was 0.5 µg/mL. For the same compound, the Ratio (Pseudomonas aeruginosa [21]) was 4, the Ratio (Klebsiella pneumoniae [22]) was 1 and the Ratio (Klebsiella aerogenes [23]) was 1. For the same compound, the Ratio (Escherichia coli [24]) was over 16, the Ratio (Acinetobacter baumannii [25]) was 1 and the MIC (Escherichia coli [26]) was 1 µg/mL. It also gave an MIC (Klebsiella pneumoniae [27]) of at most 0.03 µg/mL, a Ratio (Enterobacter cloacae [28]) of 1 and an MIC (Enterobacter cloacae [29]) of 2 µg/mL. The MIC (Pseudomonas aeruginosa [30]) was 0.25 µg/mL, the MIC (Klebsiella pneumoniae [31]) was 0.06 µg/mL and the MIC (Escherichia coli [32]) was 0.125 µg/mL. The MIC (Acinetobacter baumannii [33]) was over 64 µg/mL, the Ratio (Pseudomonas aeruginosa [34]) was 8 and the Ratio (Pseudomonas aeruginosa [35]) was over 8. It also gave a Ratio (Enterobacter cloacae [36]) of over 8, a Ratio (Escherichia coli [37]) of 4 and a Ratio (Escherichia coli [38]) of 4. For the same compound, the Ratio (Enterobacter cloacae [39]) was 8, the Ratio (Escherichia coli [40]) was over 16 and the MIC (Klebsiella pneumoniae [41]) was 1 µg/mL. It also gave a Ratio (Escherichia coli [42]) of 2 and an MIC (Escherichia coli [43]) of 0.5 µg/mL.
